Measured values as given in patent US10464925B2, “Methods to induce targeted protein degradation through bifunctional molecules” (Dana-Farber Cancer Institute, Inc., priority 2015, dated 2019).
Like-named read-outs stand apart in the source and are kept apart here.

Experiments:
CRBN = molecular target: T1, CRBN (Homo sapiens, UniProt Q96SW2); test: Intracellular CRBN Engagement Assay (dFKBP7 rescue); format: cell-based; conditions: competition with 80 nM dFKBP7, 3 hours; read-out: FKBP7 rescue (EC50)
T1 construct: endogenous in cells

MV4; 11 = test: Cell viability, ATPlite 48 hours, MV4-11; format: cell-based; conditions: Homo sapiens, 11 cells
BRDT = BRDT (Homo sapiens, UniProt Q58F21); test: BRDT IC50 (Table 4); format: binding
CRBN-DDB1 = molecular target: T2, CRBN-DDB1 (Homo sapiens, UniProt Q96SW2); test: CRBN-DDB1 Ligand-Displacement AlphaScreen Assay (thalidomide competition); format: binding; conditions: biotin-thalidomide competition; read-out: THAL ALPHA (IC50);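 note: streptavidin donor and nickel chelate acceptor bead proximity signal after 30 min incubation, normalized with no-protein background as 0% and DMSO wells as 100% activity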
T2 construct: 6xHis (given for the complex); made in house; host or cells: Sf9 cells (Invitrogen), pFastBac

797 = test: Cell viability, 797 cells (Table 4); format: cell-based; conditions: read-out: IC50 (nM) 797
LRRK2 = LRRK2 (Homo sapiens, UniProt Q5S007); test: LRRK2 IC50 (Table 4); format: biochemical
PLK1 = PLK1 (Homo sapiens, UniProt P53350); test: PLK1 IC50 (Table 4); format: biochemical
MOLT4 = test: Cell viability, ATPlite 48 hours, MOLT4; format: cell-based; conditions: Homo sapiens, MOLT-4; MOLT4 cells
DND41 = test: Cell viability, ATPlite 48 hours, DND41; format: cell-based; conditions: DND41 cells
CUTL1 = test: Cell viability, ATPlite 48 hours, CUTLL1; format: cell-based; conditions: CUTL1 cells
NGP = test: Cell viability, ATPlite 72 hours; format: cell-based; conditions: read-out: IC50 (nM) NGP
[1] = molecular target: T3, BRD4 adjoined to nanoluciferase (Nluc) (Homo sapiens, UniProt O60885+Q96SW2); test: BRD4 Dual Luciferase Assay; format: cell-based; conditions: for Emax: read-out: BRD4− Emax (percent remaining);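 for all read-outs here: transduced reporter cells exposed to compound for 4 h, then Nluc and Fluc luminescence read, each normalized to DMSO controls and expressed as Nluc/Fluc ratio per well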
T3 construct: expressed in transfected cells

BRD4 [2] = molecular target: T4, BRD4 (Homo sapiens, UniProt O60885); test: BRD4 Cell Western (BRD4 levels in 293T cells, LiCOR); format: cell-based; set-up: BRD4 levels in the cells after the dBET treatment; endogenous in cells
BRD4 [3] = molecular target: T4, BRD4; test: BRD4 AlphaScreen; format: binding; set-up: […]; His tag (inferred from capture on Ni-coated acceptor beads)
MV4-11 = test: Analysis of apoptotic cells by Caspase Glo assay; format: cell-based; conditions: MV4-11, 4 or 8 hours treatment, assessed at 24 hours
BRD4 [4] = molecular target: T4, BRD4; test: Immunoblot for BRD4 in MV4-11 cells; format: cell-based
[5] = molecular target: T5, fusion of FKBP12 to nanoluciferase (Homo sapiens, UniProt P62942+Q96SW2); test: FKBP Dual Luciferase Assay, wild-type 293FT, FKBP12; format: cell-based; conditions: 4 hours; for Dmax: read-out: Max Degradation (dual luciferase, %) FKBP
T5 construct: expressed in transfected cells

[6] = molecular target: T6, fusion of mutant FKBP12 to nanoluciferase (Homo sapiens, UniProt P62942+Q96SW2, F37V); test: FKBP Dual Luciferase Assay, wild-type 293FT, mutant FKBP12 (36V); format: cell-based; conditions: 4 hours; read-out: Max Degradation (dual luciferase, %) FKBP 36V
T6 construct: expressed in transfected cells

FKBP12 (36V) = FKBP12 (36V) (Homo sapiens, UniProt P62942, F37V); test: FKBP12 (36V) Ligand-Displacement AlphaScreen Assay; format: binding; conditions: biotin-SLF displacement, read-out: IC50 (nM) FKBP 36V
FKBP12 (WT) = FKBP12 (WT) (Homo sapiens, UniProt P62942); test: FKBP12 (WT) Ligand-Displacement AlphaScreen Assay; format: binding; conditions: biotin-SLF displacement, read-out: IC50 (nM) FKBP
[7] = 4 hours, read-out: max degradation (dual luc)
[8] = read-out: BRD4 max degradation(%) Dual Luciferase
[9] = HEK-293T; read-out: BRD4 max degradation(%) Cell Western

SMILES | EC50 (CRBN) [µM] | IC50 (MV4; 11) [nM] | IC50 (BRDT; read-out: IC50 (nM) BRDT) [nM] | IC50 (CRBN-DDB1) [µM] | IC50 797 [nM] | IC50 (MOLT4) [nM] | IC50 (DND41) [nM] | IC50 (CUTL1) [nM] | IC50 (NGP; NGP cells, Table 4) [nM] | Dmax [1, 8] [%] | IC50 (FKBP12 (36V)) [nM] | also measured
COc1cc(C(=O)NCCCOCCOCCOCCCNC(=O)COc2cccc3c2C(=O)N(C2CCC(=O)NC2=O)C3=O)ccc1Nc1ncc2c(n1)N(C)c1ccccc1C(=O)N2C (centres unmarked) [dBET12] | 34.4 | > 20000 | 5870 | 0.0238 | > 20000 | – | – | – | – | – | – | IC50 (LRRK2): 32 nM
CC[C@@H]1C(=O)N(C)c2cnc(Nc3ccc(C(=O)NCCCCNC(=O)COc4cccc5c4C(=O)N(C4CCC(=O)NC4=O)C5=O)cc3OC)nc2N1C1CCCC1 (some centres unmarked) [dBET2] | – | 6.3 | 405 | – | 113 | 192 | 110 | 81.2 | 156 | – | – | IC50 (PLK1): 6.15 nM
CC[C@@H]1C(=O)N(C)c2cnc(Nc3ccc(C(=O)NCCCOCCOCCOCCCNC(=O)COc4cccc5c4C(=O)N(C4CCC(=O)NC4=O)C5=O)cc3OC)nc2N1C1CCCC1 (some centres unmarked) [dBET10] | 8.12 | 28 | 309 | 0.0127 | 163 | 452 | 271 | 152 | 413 | 25 | – | Conc@Emax [1]: 50 µM; Dmax [1, 7]: 25.3%; Emax ([1]; BRD4 remaining at Emax): 73.1%; IC50 (PLK1): 10.2 nM; Dmax (BRD4 [2]; [9]): 20%; IC50 (BRD4 [3]; read-out: BRD4 Alpha (IC50)): 83 nM; IC50 (BRD4 [3]; read-out: IC50 (nM) BRD4): 83 nM
Cc1sc2c(c1C)C(c1ccc(Cl)cc1)=N[C@@H](CC(=O)OC(C)(C)C)c1nnc(C)n1-2 [JQ1] | – | – | – | – | – | – | – | – | – | – | – | induction of apoptosis after pulsed treatment and drug washout (MV4-11): did not yield a pronounced apoptotic response; BRD4 degradation by treatment alone (BRD4 [4]): insufficient to induce BRD4 degradation
CCC(C)(C)C(=O)C(=O)N1CCC[C@H]1C(=O)O[C@H](CCc1ccc(OC)c(OC)c1)c1cccc(OCC(=O)NCCCCNC(=O)COc2cccc3c2C(=O)N(C2CCC(=O)NC2=O)C3=O)c1 (some centres unmarked) [dFKBP-3] | – | – | – | – | – | – | – | – | – | – | 1200 | Dmax [5]: 22%; Dmax [6]: 12%
CCC(C)(C)C(=O)C(=O)N1CCCC[C@H]1C(=O)O[C@H](CCc1ccc(OC)c(OC)c1)c1cccc(NC(=O)CCC(=O)NCCCCNC(=O)COc2cccc3c2C(=O)N(C2CCC(=O)NC2=O)C3=O)c1 (some centres unmarked) [dFKBP-1] | – | – | – | – | – | – | – | – | – | – | 237 | IC50 (FKBP12 (WT)): 274 nM
COc1cc(C(=O)NCCCCNC(=O)COc2cccc3c2C(=O)N(C2CCC(=O)NC2=O)C3=O)ccc1Nc1ncc2c(n1)N(C)c1ccccc1C(=O)N2C (centres unmarked) [dBET11] | 2430 | 3.38 | 2900 | 0.0251 | > 20000 | – | – | – | – | – | – | IC50 (BRD4 [3]; read-out: BRD4 Alpha (IC50)): 958 nM; IC50 (BRD4 [3]; read-out: IC50 (nM) BRD4): 958 nM; IC50 (LRRK2): 7.3 nM
COc1ccc(CC[C@@H](OC(=O)[C@@H]2CCCCN2C(=O)Cc2ccccc2)c2cccc(OCC(=O)NCCCCNC(=O)COc3cccc4c3C(=O)N(C3CCC(=O)NC3=O)C4=O)c2)cc1OC (some centres unmarked) [dFKBP-5] | – | – | – | – | – | – | – | – | – | – | 2290 | Dmax [5]: 11%; Dmax [6]: < 5%
Cc1sc2c(c1C)C(c1ccc(Cl)cc1)=N[C@@H](CC(=O)NCCCN1CCN(C(=O)CCCCCNC(=O)COc3cccc4c3C(=O)N(C3CCC(=O)NC3=O)C4=O)CC1)c1nnc(C)n1-2 (some centres unmarked) [dBET18] | 749 | – | 28 | 0.00157 | 1360 | 1920 | 1790 | 2840 | 4960 | 37 | – | Dmax [1, 7]: 36.5%; Emax ([1]; BRD4 remaining at Emax): 65.4%; Dmax (BRD4 [2]; [9]): 57%; IC50 (BRD4 [3]; read-out: BRD4 Alpha (IC50)): 11 nM; IC50 (BRD4 [3]; read-out: IC50 (nM) BRD4): 11 nM
Cc1sc2c(c1C)C(c1ccc(Cl)cc1)=N[C@@H](CC(=O)NCCCOCCOCCOCCCNC(=O)COc1cccc3c1C(=O)N(C1CCC(=O)NC1=O)C3=O)c1nnc(C)n1-2 (some centres unmarked) [dBET9] | – | 28 | 52 | – | 296 | – | 1520 | 1550 | 8420 | 25 | – | Dmax [1, 7]: 24.8%; Emax ([1]; BRD4 remaining at Emax): 71%; Dmax (BRD4 [2]; [9]): 41%
Cc1sc2c(c1C)C(c1ccc(Cl)cc1)=N[C@@H](CC(=O)NCCCCCCNC(=O)c1ccc3c(c1)C(=O)N(C1CCC(=O)NC1=O)C3=O)c1nnc(C)n1-2 (some centres unmarked) [dBET15] | – | 312 | – | – | 1270 | 6960 | 10400 | 6840 | – | 18 | – | Emax [1]: 78.2%; Dmax ([1]; read-out: max degradation (dual luc)): 18.2%; Dmax (BRD4 [2]; HEK-293T, read-out: BRD4 max degradation(%) Cell Western): 24%; IC50 (BRDT): 93 nM; IC50 (NGP; NGP): > 20000 nM
O=C1CCC(N2C(=O)c3ccccc3C2=O)C(=O)N1 (centres unmarked) [thalidomide] | – | – | – | – | – | – | – | – | – | – | – | BRD4 degradation by treatment alone (BRD4 [4]; MV4-11, 24 h): insufficient to induce BRD4 degradation
CCC(C)(C)C(=O)C(=O)N1CCCC[C@H]1C(=O)O[C@H](CCc1ccc(OC)c(OC)c1)c1cccc(OCC(=O)NCCCCNC(=O)COc2cccc3c2C(=O)N(C2CCC(=O)NC2=O)C3=O)c1 (some centres unmarked) [dFKBP-4] | – | – | – | – | – | – | – | – | – | – | 369 | DC50 [5]: 2.97 nM; Dmax [5]: 34%; Dmax [6]: 21%
